In patent publication US20250140406A1, “CLASSIFYING TUMORS AND PREDICTING RESPONSIVENESS” (Oncocyte Corporation, priority 2022, published 2025):

Key:
[1] = system: cancer cell lines, DetermaIO classes; experiment: Association of PRISM compound sensitivity with DetermaIO (DTIO) cell line classes; format: cell-based
[2] = system: cancer cell lines classified IM, MSL, M; experiment: PRISM screen compound sensitivity correlated with IM, MSL and M subtype of cell lines (101 gene signature); format: cell-based
[3] = correlation of PRISM compound sensitivity with DTIO, test cell set
[4] = correlation of PRISM compound sensitivity with DTIO, training cell set
[5] = correlation of PRISM compound sensitivity with IM subtype correlation; test cell set
[6] = correlation of PRISM compound sensitivity with M subtype correlation; test cell set
[7] = correlation of PRISM compound sensitivity with MSL subtype correlation; test cell set
[8] = subtype (IM, MSL or M) with which PRISM compound sensitivity is negatively correlated; training cell set, 101 gene signature
[9] = correlation of PRISM compound sensitivity with DTIO (DetermaIO), test cell set (188 cell lines)
[10] = correlation of PRISM compound sensitivity with DTIO (DetermaIO), training cell set (371 cell lines)
[11] = correlation of PRISM compound sensitivity with IM subtype correlation; test cell set (188 cell lines)
[12] = correlation of PRISM compound sensitivity with M subtype correlation; test cell set (188 cell lines)
[13] = correlation of PRISM compound sensitivity with MSL subtype correlation; test cell set (188 cell lines)
[14] = subtype (IM, MSL or M) assigned to the compound by negative correlation of PRISM sensitivity with subtype; training cell set (371 cell lines), 101 gene signature
[15] = subtype (IM, MSL or M) with which compound sensitivity is negatively correlated; training cell set (371 cell lines), 101 gene signature
[16] = correlation of compound sensitivity with DTIO, test set
[17] = correlation of compound sensitivity with DTIO, training set
[18] = correlation of compound sensitivity with DetermaIO (DTIO), test set
[19] = correlation of compound sensitivity with DetermaIO (DTIO), training set

| SMILES | DTIO Corr test [1, 3] | DTIO Corr train [1, 4] | IM Corr test [2, 5] | M Corr test [2, 6] | MSL Corr test [2, 7] | DTIO Corr test [1, 9] | DTIO Corr train [1, 10] | IM Corr test [2, 11] | M Corr test [2, 12] | MSL Corr test [2, 13] | also measured |
| --- | --- | --- | --- | --- | --- | --- | --- | --- | --- | --- | --- |
| COc1ccc(/C=C/CCCCOc2ccc(C(=O)c3cccc(C(=O)O)c3)cc2CCC(=O)O)cc1 [LY223982] | −0.04973 | 0.000351 | 0.01323 | 0.005739 | −0.01914 | – | – | – | – | – | TNBCType train [2, 8]: MSL |
| O=C1NC(=O)C(c2cnc3ccccn23)=C1c1cn2c3c(cc(F)cc13)CN(C(=O)N1CCCCC1)CC2 [LY2090314] | – | – | – | – | – | 0.003829 | −0.08353 | −0.01913 | 0.0417 | −0.00714 | TNBCType train [2, 14]: MSL |
| C[C@@H](Oc1ccc2[nH]nc(/C=C/c3cnn(CCO)c3)c2c1)c1c(Cl)cncc1Cl [LY2874455] | −0.0838 | −0.1449 | – | – | – | – | – | −0.01933 | −0.0758 | −0.1021 | – |
| CN(C)C(=O)CCSC(SCCC(=O)O)c1cccc(/C=C/c2ccc3ccc(Cl)cc3n2)c1 (stereo not drawn) [MK-571] | −0.00581 | 0.02432 | – | – | – | – | – | −0.02535 | −0.02967 | −0.00401 | TNBCType train [2, 15]: MSL |
| C=CCn1c(=O)c2cnc(Nc3ccc(N4CCN(C)CC4)cc3)nc2n1-c1cccc(C(C)(C)O)n1 [MK-1775] | −0.1537 | −0.09981 | −0.1878 | 0.1655 | 0.1175 | – | – | – | – | – | – |
| CN(C[C@@H]1COCCO1)S(=O)(=O)Nc1ccc2ccc3ncc(-c4cnn(C)c4)cc3c(=O)c2c1 [MK-2461] | – | – | – | – | – | −0.00757 | −0.03035 | 0.05424 | −0.1288 | −0.01237 | TNBCType train [2, 14]: MSL |
| Cc1ccc(CNc2ncnc3ccc(-c4ccc(CO)o4)cc23)o1 [ML167] | – | – | – | – | – | −0.03284 | −0.07536 | −0.07672 | 0.05836 | 0.01781 | – |
| COc1ccccc1N1CCN(CCCCN2C(=O)CCC2=O)CC1 [MM77] | −0.06165 | −0.1241 | −0.07111 | 0.07806 | 0.009431 | – | – | – | – | – | – |
| O=C(NCCCN1CCCCCC1)C(c1ccccc1)C1CCCCC1 (stereo not drawn) [MR-16728] | 0.04353 | −0.1606 | – | – | – | – | – | −0.01298 | 0.0251 | 0.06487 | – |
| O=C(O)/C=C1\CCCc2ccccc2C1O (stereo not drawn) [NCS-382] | −0.1705 | −0.1343 | – | – | – | – | – | −0.09394 | 0.1059 | 0.05928 | – |
| CCCN(CCC)CCc1ccc(OC)c(OCCc2ccccc2)c1 [NE-100] | 0.02588 | 0.0932 | – | – | – | – | – | 0.02328 | −0.05032 | −0.07257 | TNBCType train [2, 15]: MSL |
| O=Nc1ccc(O)c2ncccc12 [NSC-3852] | −0.00012 | 0.09356 | – | – | – | – | – | 0.06425 | −0.1666 | −0.09058 | DTIO Corr test [1, 16]: −0.00012; DTIO Corr train [1, 17]: 0.09356 |
| CCN(CC)CCCC(C)Nc1nc(C)cc(Nc2ccc3nc(C)cc(N)c3c2)n1 (stereo not drawn) [NSC-23766] | 0.048 | 0.0675 | – | – | – | – | – | −0.00484 | −0.06657 | 0.1332 | – |
| CCCCCCCC/C=C\CCCCCCCC(=O)NCCc1ccc(O)c(O)c1 [OLDA] | – | – | – | – | – | – | – | 0.0783 | −0.1742 | −0.06733 | DTIO Corr test ([1]; correlation of PRISM compound sensitivity with DTIO, test cell set (188 cell lines)): 0.08614; DTIO Corr train ([1]; correlation of PRISM compound sensitivity with DTIO, training cell set (371 cell lines)): 0.09584; TNBCType train ([2]; subtype (IM, MSL or M) the PRISM compound sensitivity is associated with; training cell set (371 cell lines); 101 gene signature): MSL |
| CCCCCCCC/C=C\CCCCCCCC(=O)N[C@@H](CO)Cc1ccc(O)cc1 [OMDM-2] | 0.08864 | 0.00432 | 0.07857 | −0.1315 | −0.1068 | – | – | – | – | – | TNBCType train [2, 8]: MSL |
| C#Cc1cccc(Nc2ncnc3cc(OCCOC)c(OCCO)cc23)c1 [OSI-420] | – | – | – | – | – | 0.1184 | −0.1185 | −0.01776 | 0.1416 | 0.3027 | – |

| SMILES | DTIO Corr test [1, 3] | DTIO Corr train [1, 4] | IM Corr test [2, 5] | M Corr test [2, 6] | MSL Corr test [2, 7] | DTIO Corr test [1, 9] | DTIO Corr train [1, 10] | IM Corr test [2, 11] | M Corr test [2, 12] | MSL Corr test [2, 13] | also measured |
| --- | --- | --- | --- | --- | --- | --- | --- | --- | --- | --- | --- |
| COc1cc2ncnc(Nc3cccc(Br)c3)c2cc1OC [PD-153035] | −0.03709 | −0.1232 | −0.1533 | 0.2905 | 0.3911 | – | – | – | – | – | DTIO Corr test [1, 16]: −0.03709; DTIO Corr train [1, 17]: −0.1232 |
| CC(=O)NCC(=O)N1[C@@H]2CC[C@H]1c1ccc(Nc3ncc(C(F)(F)F)c(NC4CCC4)n3)cc12 [PF-03814735] | – | – | – | – | – | −0.05974 | −0.01193 | 0.01597 | −0.07539 | −0.04366 | TNBCType train [2, 14]: MSL |
| OCCn1cc(-c2cnc3nnn(Cc4ccc5ncccc5c4)c3n2)cn1 [PF-04217903] | – | – | – | – | – | −0.00139 | −0.1163 | −0.04418 | 0.07402 | 0.07771 | – |
| C[C@H]1Oc2cc(cnc2N)-c2c(nn(C)c2C#N)CN(C)C(=O)c2ccc(F)cc21 [PF-06463922] | −0.00728 | −0.07689 | – | – | – | – | – | −0.1219 | −0.02078 | −0.05668 | TNBCType train [2, 15]: MSL |
| Cc1ccc([N+](=O)[O-])cc1S(=O)(=O)N(C)/N=C/c1cnc2ccc(Br)cn12 [PIK-75] | −0.1696 | −0.1178 | −0.1541 | 0.127 | 0.07706 | – | – | – | – | – | – |
| Cc1ccccc1-n1c(Cn2ncc3c(N)ncnc32)nc2cccc(C)c2c1=O [PIK-293] | 0.02467 | −0.1397 | −0.06338 | 0.066 | 0.00947 | – | – | – | – | – | – |
| Nc1ncnc2c1c(-c1cnc3[nH]ccc3c1)nn2C1CCCC1 [PP-121] | – | – | – | – | – | −0.08787 | −0.1218 | −0.08606 | 0.07821 | 0.02379 | – |
| N#CSc1cc(SC#N)c(N)nc1N [PR-619] | 0.05674 | 0.0993 | 0.1495 | −0.2203 | −0.1223 | – | – | – | – | – | DTIO Corr test [1, 18]: 0.05674; DTIO Corr train [1, 19]: 0.0993 |
| O=C(NCc1cccc(O)c1)Nc1nc(-c2ccncc2)cs1 [RKI-1447] | 0.08122 | 0.04633 | – | – | – | – | – | 0.09379 | −0.1921 | −0.2082 | DTIO Corr test [1, 16]: 0.08122; DTIO Corr train [1, 17]: 0.04633; DTIO Corr test [1, 18]: 0.08122; DTIO Corr train [1, 19]: 0.04633; TNBCType train [2, 15]: MSL; TNBCType test ([2]; subtype (IM, MSL, M) with which compound sensitivity correlates, test set): MSL; TNBCType train ([2]; subtype (IM, MSL, M) with which compound sensitivity correlates, training set): MSL; TNBCType test ([2]; subtype (IM, MSL, M) with which compound sensitivity correlates; test set): MSL; TNBCType train ([2]; subtype (IM, MSL, M) with which compound sensitivity correlates; training set): MSL |
| O=[N+]([O-])c1cc(Cl)ccc1S(=O)(=O)N1CCN(Cc2ccccc2)CC1 [RN-1747] | −0.09773 | −0.1839 | −0.1441 | 0.1428 | 0.1269 | – | – | – | – | – | – |
| CC(C)c1cc(-c2ccc(F)c3ccccc23)nc(N)n1 [RS-127445] | – | – | – | – | – | 0.0427 | 0.05431 | 0.05394 | −0.1296 | −0.05973 | TNBCType train [2, 14]: MSL |
| O=c1[nH]ccc2cc(OC3CCNCC3)ccc12 [SAR407899] | – | – | – | – | – | −0.00558 | 0.07673 | 0.003595 | −0.1052 | −0.2277 | TNBCType train [2, 14]: MSL |
| COC(=O)[C@H](NC(=O)c1cc(-c2ccccc2)nc2ccccc12)c1ccccc1 [SB-218795] | – | – | – | – | – | −0.06114 | −0.1377 | −0.01019 | 0.01779 | −0.1047 | – |
| Cc1cccc(-c2[nH]c(C(C)(C)C)nc2-c2ccc3c(c2)OCO3)n1 [SB-505124] | 0.1683 | 0.2562 | 0.2475 | −0.1987 | −0.01627 | – | – | – | – | – | DTIO Corr test [1, 18]: 0.1683; DTIO Corr train [1, 19]: 0.2562 |
| COc1ccc(S(=O)(=O)N2CCCN(S(=O)(=O)c3ccc(OC)c(OC)c3)CC2)cc1OC [SB-756050] | −0.06711 | −0.07957 | −0.03347 | −0.03952 | 0.01577 | – | – | – | – | – | – |
